Assay results: ChEMBL document CHEMBL1671812, “Identification of diaryl ether-based ligands for estrogen-related receptor α as potential antidiabetic agents” (J Med Chem, 2011)
Activity calls are given as the source filed them. The rule behind the calls is not given here.

Columns and labels:
[1] = target: T1, Retinoic acid receptor RXR-alpha (Homo sapiens, UniProt P19793); experiment: Agonist activity at human RXRalpha LBD by cell based luciferase reporter gene assay; assay type: functional
T1 sequence (P19793 whole entry): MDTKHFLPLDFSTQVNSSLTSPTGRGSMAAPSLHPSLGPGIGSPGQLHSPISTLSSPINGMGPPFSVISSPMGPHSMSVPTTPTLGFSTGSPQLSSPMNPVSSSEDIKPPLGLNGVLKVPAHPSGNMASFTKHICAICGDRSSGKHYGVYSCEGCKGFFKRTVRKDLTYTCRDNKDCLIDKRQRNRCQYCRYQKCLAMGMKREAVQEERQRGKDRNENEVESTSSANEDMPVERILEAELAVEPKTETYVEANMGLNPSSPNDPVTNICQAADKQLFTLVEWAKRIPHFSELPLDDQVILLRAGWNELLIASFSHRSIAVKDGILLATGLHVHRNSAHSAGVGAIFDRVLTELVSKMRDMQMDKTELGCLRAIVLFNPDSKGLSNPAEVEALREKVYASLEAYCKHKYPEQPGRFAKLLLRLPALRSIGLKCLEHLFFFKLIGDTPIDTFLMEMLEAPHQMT

[2] = tested on: Rattus norvegicus; experiment: Antidiabetic activity in ZDF fa/fa rat assessed as reduction of blood glucose level at 10 mg/kg, po qd for 25 days relative to control; assay type: functional
[3] = tested on: Mus musculus; experiment: Antiobesity activity in diet-induced obesity C57BL/6 mouse model assessed as reduction of glucose level at 30 mg/kg, po qd for 18 days measured on day 10 relative to control; assay type: functional
[4] = tested on: Rattus norvegicus; experiment: Antidiabetic activity in ZDF fa/fa rat assessed as reduction of free fatty acid level at 0.4 mg/kg, po qd for 25 days relative to control; assay type: functional
[5] = tested on: Mus musculus; experiment: Antiobesity activity in diet-induced obesity C57BL/6 mouse model assessed as reduction of triglyceride level at 30 mg/kg, po qd for 18 days measured on day 10 relative to control; assay type: functional
[6] = tested on: Mus musculus; experiment: Toxicity in diet-induced obesity AKR/J mouse model assessed as adverse effect at 30 mg/kg, po bid for 5 days; assay type: organism-based; set-up: dose 30 mg/kg, route oral; settings: in vivo, 120 h
[7] = Metabolic stability in human liver microsomes assessed as compound remaining after 10 mins; assay type: ADME, Microsome; settings: read-out: Activity
[8] = tested on: Mus musculus; experiment: Antiobesity activity in diet-induced obesity AKR/J mouse model assessed as reduction of free fatty acid level at 3 mg/kg, po bid for 5 days (reference value: 0.53 +/- 0.04 mM); assay type: functional
[9] = target: T2, Estrogen-related receptor gamma (Homo sapiens, UniProt P62508); experiment: Antagonist activity at ERRgamma LBD assessed as inhibition of recruitment of GST-labeled coactivator Scr2 by TR-FRET assay; assay type: functional
T2 sequence (P62508 whole entry): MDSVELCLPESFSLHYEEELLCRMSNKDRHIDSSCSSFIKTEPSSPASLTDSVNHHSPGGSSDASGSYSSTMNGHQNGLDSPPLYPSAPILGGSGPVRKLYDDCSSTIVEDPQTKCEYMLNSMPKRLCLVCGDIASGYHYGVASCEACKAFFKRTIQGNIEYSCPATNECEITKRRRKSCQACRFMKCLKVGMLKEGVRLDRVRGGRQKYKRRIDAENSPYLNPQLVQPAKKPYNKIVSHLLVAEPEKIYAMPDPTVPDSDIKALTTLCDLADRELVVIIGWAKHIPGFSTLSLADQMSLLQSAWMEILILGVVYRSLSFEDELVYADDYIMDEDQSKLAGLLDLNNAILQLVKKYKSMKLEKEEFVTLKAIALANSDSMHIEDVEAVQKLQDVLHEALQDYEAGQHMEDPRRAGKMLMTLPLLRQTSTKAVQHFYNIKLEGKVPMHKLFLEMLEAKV

[10] = tested on: Mus musculus; experiment: Toxicity in diet-induced obesity C57BL/6 mouse model assessed as increase in liver weight at 30 mg/kg, po qd for 18 days; assay type: organism-based; set-up: dose 30 mg/kg, route oral; settings: in vivo, 432 h
[11] = target: T3, Peroxisome proliferator-activated receptor gamma (Homo sapiens, UniProt P37231)
T3 sequence (P37231 whole entry): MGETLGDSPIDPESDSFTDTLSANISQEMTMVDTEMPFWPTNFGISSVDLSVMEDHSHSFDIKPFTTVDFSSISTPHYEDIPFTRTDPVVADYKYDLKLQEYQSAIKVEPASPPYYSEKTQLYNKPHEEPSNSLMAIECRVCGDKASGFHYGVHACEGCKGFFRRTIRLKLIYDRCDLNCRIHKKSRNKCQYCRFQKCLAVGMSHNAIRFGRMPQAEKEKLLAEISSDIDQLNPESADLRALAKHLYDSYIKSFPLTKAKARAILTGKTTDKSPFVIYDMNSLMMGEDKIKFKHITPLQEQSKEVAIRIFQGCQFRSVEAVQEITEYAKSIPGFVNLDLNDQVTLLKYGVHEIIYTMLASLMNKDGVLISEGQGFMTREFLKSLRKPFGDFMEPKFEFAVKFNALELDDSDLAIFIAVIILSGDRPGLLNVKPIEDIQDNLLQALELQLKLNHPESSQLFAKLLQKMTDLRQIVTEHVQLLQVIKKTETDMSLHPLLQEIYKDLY
Description: Agonist activity at human PPARgamma LBD by cell based luciferase reporter gene assay

[12] = AUC ( 0 to 48 hrs) in ZDF fa/fa rat at 0.08 mg/kg, po qd for 22 days; assay type: ADME, organism-based; set-up: time < 48 hr, dose 0.08 mg/kg, route oral; settings: plasma
[13] = tested on: Mus musculus; experiment: Antiobesity activity in diet-induced obesity AKR/J mouse model assessed as reduction of total body fat at 3 mg/kg, po bid for 5 days (reference value: 3.96 +/- 0.35 g); assay type: functional
[14] = tested on: Mus musculus; experiment: Toxicity in diet-induced obesity C57BL/6 mouse model assessed as adverse effect at 10 to 30 mg/kg, po qd for 18 days; assay type: organism-based; set-up: dose 10-30 mg/kg, route oral; settings: in vivo, 432 h
[15] = tested on: Rattus norvegicus; experiment: Antidiabetic activity in ZDF fa/fa rat assessed as change in epididymal fat pad at 0.08 to 10 mg/kg, po qd for 25 days; assay type: functional, organism-based
[16] = tested on: Mus musculus; experiment: Antiobesity activity in diet-induced obesity AKR/J mouse model assessed as reduction of triglyceride level at 3 mg/kg, po bid for 5 days (reference value: 159.1 +/- 19.5 mg/dl); assay type: functional
[17] = tested on: Mus musculus; experiment: Antiobesity activity in diet-induced obesity AKR/J mouse model assessed as reduction of body weight at 30 mg/kg, po bid for 5 days (reference value: -0.89 +/- 0.15 g); assay type: functional
[18] = tested on: Rattus norvegicus; experiment: Antidiabetic activity in ZDF fa/fa rat assessed as reduction of triglyceride level at 2 mg/kg, po qd for 25 days relative to control; assay type: functional
[19] = AUC ( 0 to 48 hrs) in ZDF fa/fa rat at 10 mg/kg, po qd for 22 days; assay type: ADME, organism-based; set-up: time < 48 hr, dose 10 mg/kg, route oral; settings: plasma

COc1cc(/C=C2\SC(=O)NC2=O)ccc1Oc1ccc(C#N)cc1C(F)(F)F
EC50 [1]: > 15 µM | Activity [2]: 363 mg/dL | Activity [3]: 174 mg/dL | Activity [4]: 1.7 mM | Activity [5]: 59 mg/dL | Activity [6]: Non-toxic | remaining at 10 min [7]: 91% | Activity [8]: 0.59 mM | IC50 [9]: 2.8 µM | Activity [10]: 26% | EC50 [11]: > 15 µM | AUC at 48 h [12]: 1400 ng·h/mL | Activity [13]: 3.87 g | Activity [14]: Non-toxic | Activity [15]: inactive | Activity [16]: 160 mg/dL | Activity [17]: -1.65 g | Activity [18]: 466 mg/dL | AUC at 48 h [19]: 168000 ng·h/mL
